For 25 compounds, IC50 results are on record in ChEMBL document CHEMBL5604063, “ASAP - DENV-2 NS2B-NS3 protease fluorescence dose response” (2024).

Each structure is given as a SMILES string. Values joined by “and” are separate entries in the source; they are usually repeats but may differ in a detail not shown here. Identical values can stand only once.

For test [1], the target named is T1, Genome polyprotein (dengue virus type 2, UniProt P29990). Type of test: functional, Thailand/16681/1984.
Test [2] concerns the target T1, Genome polyprotein. The class given is functional, Thailand/16681/1984. This is another data set of the same source.

T1 sequence (P29990 1346-1475 limits assumed): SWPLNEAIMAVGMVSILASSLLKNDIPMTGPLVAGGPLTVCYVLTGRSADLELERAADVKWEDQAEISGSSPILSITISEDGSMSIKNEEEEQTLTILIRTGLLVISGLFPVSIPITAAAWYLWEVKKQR
T1 sequence (P29990 1476-2093 limits assumed): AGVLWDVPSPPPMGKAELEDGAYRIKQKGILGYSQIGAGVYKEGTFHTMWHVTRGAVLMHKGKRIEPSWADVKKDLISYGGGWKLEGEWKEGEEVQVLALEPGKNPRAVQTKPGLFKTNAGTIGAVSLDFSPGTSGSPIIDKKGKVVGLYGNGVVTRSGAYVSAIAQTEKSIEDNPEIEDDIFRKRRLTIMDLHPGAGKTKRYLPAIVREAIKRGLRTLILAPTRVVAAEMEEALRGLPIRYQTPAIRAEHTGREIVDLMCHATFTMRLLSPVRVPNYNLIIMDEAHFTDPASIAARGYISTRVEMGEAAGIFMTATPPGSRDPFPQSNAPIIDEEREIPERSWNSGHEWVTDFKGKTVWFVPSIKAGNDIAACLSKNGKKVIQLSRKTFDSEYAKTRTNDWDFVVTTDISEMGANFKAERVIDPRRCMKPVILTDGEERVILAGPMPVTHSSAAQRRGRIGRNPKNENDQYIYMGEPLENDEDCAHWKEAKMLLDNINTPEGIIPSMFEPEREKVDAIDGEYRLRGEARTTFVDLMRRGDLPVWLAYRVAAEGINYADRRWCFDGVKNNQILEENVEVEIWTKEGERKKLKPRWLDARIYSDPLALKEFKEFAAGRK

Broadly, the IC50 is the point on the concentration scale where inhibition reaches its midpoint. Low values mean inhibition by little substance, high ones a need for much substance. As to `Cc1c(C(=O)Nc2cccc(-n3nn[nH]c3=O)c2)cc(C2CC2)n1C`, the IC50 against Genome polyprotein [1] is over 100 µM; against Genome polyprotein [2], over 99.5 µM.

As for `O=C(Nc1cccc(-c2nnn[nH]2)c1)c1cc(Cl)cc2[nH]ncc12`, the half-maximal inhibitory concentration (IC50) at Genome polyprotein [1] is over 100 µM; on Genome polyprotein [2] it was over 99.5 µM.

On to `NCc1ccc2c(c1)[C@H]1OCCC[C@H]1[C@H](c1cc(Cl)cc(NC(=O)OCc3ccccc3)c1)N2`, for which the concentration for half-maximal inhibition (IC50) against Genome polyprotein [1] was 33.9 µM and 45.8 µM; against Genome polyprotein [2] it was 17.6 µM and 15.9 µM.

On to `N#Cc1cc(Cl)cc(S(=O)(=O)Nc2cccc(-c3nnn[nH]3)c2)c1`, for which the IC50 is over 100 µM on Genome polyprotein [1] and over 99.5 µM on Genome polyprotein [2].

On to `Nc1cccc(NC(=O)c2cc(Cl)cc(NC(=O)OCc3ccccc3)c2)c1`, for which the half-maximal inhibitory concentration (IC50) at Genome polyprotein [1] was over 100 µM; on Genome polyprotein [2], over 99.5 µM.

Consider `CC(C)c1nc2c(C(=O)Nc3cccc(-c4nnn[nH]4)c3)cccc2[nH]1`, for which the IC50 against Genome polyprotein [1] is over 100 µM; against Genome polyprotein [2], over 99.5 µM.

As to `Nc1nc2ccc(NC(=O)c3cc(Cl)cc(NC(=O)OCc4ccccc4)c3)cc2[nH]1`, the IC50 was over 100 µM against Genome polyprotein [1] and over 99.5 µM on Genome polyprotein [2].

Regarding `CCNC(=O)Nc1cc(Cl)cc(C(=O)Nc2ccc([C@H](CC)Cc3nnn[nH]3)cc2)c1`, the IC50 against Genome polyprotein [1] is over 100 µM; against Genome polyprotein [2] it was over 99.5 µM.

For the compound `CNC(=O)[C@H](Nc1cccc(N)n1)c1cc(Cl)cc(CNC(=O)OC(C)(C)C)c1`, the half-maximal inhibitory concentration (IC50) was over 100 µM against Genome polyprotein [1] and over 99.5 µM on Genome polyprotein [2].

Take `O=C(Nc1cc(Cl)cc(C(=O)Nc2cc(Br)cc(-c3nnn[nH]3)c2)c1)OCc1ccccc1`: the IC50 against Genome polyprotein [1] is 4.76 µM and 6.21 µM; against Genome polyprotein [2] it was 5.85 µM.

Consider `COC(=O)c1cc(NC(=O)c2cc(Cl)cc(NC(=O)OCc3ccccc3)c2)cc(-c2nnn[nH]2)c1`, for which the IC50 against Genome polyprotein [1] is 5.42 µM and 6.24 µM; against Genome polyprotein [2], 6.17 µM.

In the case of `N#Cc1cc(CN)cc(NC(=O)c2cc(Cl)cc(NC(=O)OCc3ccccc3)c2)c1`, the IC50 at Genome polyprotein [1] was over 100 µM; on Genome polyprotein [2], over 99.5 µM.

Turning to `C=CC[C@H](Nc1cccc(CN)n1)c1cc(Cl)cc(NC(=O)OCc2ccccc2)c1`, the IC50 at Genome polyprotein [1] is over 100 µM; against Genome polyprotein [2] it was over 99.5 µM.

`O=C(Nc1cc(Cl)cc(C(=O)NC2(c3nn[nH]n3)CCCC2)c1)OCc1ccccc1`: the half-maximal inhibitory concentration (IC50) is over 100 µM on Genome polyprotein [1] and over 99.5 µM against Genome polyprotein [2].

Turning to `CC[C@H](Cc1nnn[nH]1)c1ccc(NC(=O)[C@H]2[C@H]3CCCCC[C@H]3[C@H]2NC(=O)OCc2ccccc2)cc1`, the concentration for half-maximal inhibition (IC50) at Genome polyprotein [1] is 13 µM and 16.4 µM; at Genome polyprotein [2] it was 22.9 µM.

For the compound `CCNC(=O)Nc1cc(Cl)cc(C(=O)Nc2cccc(-c3nn[nH]n3)c2)c1`, the IC50 was over 100 µM against Genome polyprotein [1] and over 99.5 µM at Genome polyprotein [2].

Turning to `COC(=O)c1cc(CN)cc([C@@H]2C[C@H]2c2cc(Cl)cc(NC(=O)OCc3ccccc3)c2)c1`, the IC50 against Genome polyprotein [1] was over 100 µM; at Genome polyprotein [2] it was over 99.5 µM.

In the case of `Cc1ccc(-c2nnn[nH]2)cc1NC(=O)c1cc(Cl)cc(NC(=O)OCc2ccccc2)c1`, the IC50 is 9.21 µM and 13.1 µM at Genome polyprotein [1]; 18.4 µM against Genome polyprotein [2].

Take `O=S(=O)(Nc1cccc(-c2nnn[nH]2)c1)c1cc(F)cc(Cl)c1`: the IC50 against Genome polyprotein [1] is over 100 µM; at Genome polyprotein [2] it was over 99.5 µM.

In the case of `CNC(=O)[C@H](Nc1cc(Cl)cc(NC(=O)OCc2ccccc2)c1)c1cccc(CN)c1`, the IC50 on Genome polyprotein [1] was over 100 µM; against Genome polyprotein [2], over 99.5 µM.

Consider `CCOC(=O)c1[nH]c(C)c(C(=O)Nc2cccc(CN)c2)c1CC`, for which the half-inhibitory concentration (IC50) was over 100 µM at Genome polyprotein [1] and over 99.5 µM against Genome polyprotein [2].

For `Cc1c(C(=O)Nc2ccc3c(c2)CNCCO3)cc(C2CC2)n1C`, the 50% inhibitory concentration (IC50) on Genome polyprotein [1] is over 100 µM; against Genome polyprotein [2], over 99.5 µM.

Regarding `N[C@H]1CCc2cc(NC(=O)c3cc(Cl)cc(NC(=O)OCc4ccccc4)c3)ccc21`, the IC50 is over 100 µM against Genome polyprotein [1] and 44.7 µM at Genome polyprotein [2].

With `O=C(N[C@H]1[C@H]2CCCCC[C@H]2[C@H]1C(=O)Nc1cccc(-n2nn[nH]c2=O)c1)OCc1ccccc1`, the IC50 was 37.9 µM and 54.6 µM against Genome polyprotein [1]; 27.1 µM on Genome polyprotein [2].

`NCc1ccc2c(c1)[C@H](N1CCCC1=O)C[C@H](c1cc(Cl)cc(NC(=O)OCc3ccccc3)c1)N2`: the IC50 is 75.5 µM against Genome polyprotein [1] and over 99.5 µM against Genome polyprotein [2].
